ChEMBL document CHEMBL1142800, “Estrogen receptor ligands. Part 13: Dihydrobenzoxathiin SERAMs with an optimized antagonist side chain” (Bioorg Med Chem Lett, 2005)

Molecular target: Estrogen receptor beta (Homo sapiens, UniProt Q92731)
Test: Inhibition of human estrogen receptor 2 using tritiated estradiol incubated for 3 hr

Chain of Estrogen receptor beta (Q92731 whole entry): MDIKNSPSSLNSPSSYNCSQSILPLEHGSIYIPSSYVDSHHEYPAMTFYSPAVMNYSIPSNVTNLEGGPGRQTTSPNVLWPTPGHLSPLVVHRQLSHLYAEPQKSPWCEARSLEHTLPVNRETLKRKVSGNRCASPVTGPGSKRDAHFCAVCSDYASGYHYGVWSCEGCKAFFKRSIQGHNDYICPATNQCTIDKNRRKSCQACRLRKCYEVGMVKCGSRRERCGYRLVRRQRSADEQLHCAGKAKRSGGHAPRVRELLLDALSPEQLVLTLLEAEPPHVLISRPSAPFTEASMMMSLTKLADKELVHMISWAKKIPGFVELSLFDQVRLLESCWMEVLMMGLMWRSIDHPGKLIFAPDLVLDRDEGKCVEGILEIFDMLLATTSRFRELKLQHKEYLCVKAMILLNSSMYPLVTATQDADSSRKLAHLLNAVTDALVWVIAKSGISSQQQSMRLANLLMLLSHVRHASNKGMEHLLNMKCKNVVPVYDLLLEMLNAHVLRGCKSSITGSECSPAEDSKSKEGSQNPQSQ

Work on `C[C@@H]1CCN([C@@H](C)COc2ccc([C@@H]3Oc4ccc(O)c(F)c4S[C@@H]3c3cccc(O)c3)cc2)C1` yielded an IC50 of 9.1 nM.

Compound `C[C@@H]1CCN([C@@H](C)COc2ccc([C@@H]3Oc4ccc(O)cc4S[C@@H]3c3cccc(O)c3)cc2)C1` has an IC50 of 69 nM.

`C[C@@H]1CCN([C@@H](C)COc2ccc([C@@H]3Oc4ccc(O)c(F)c4S[C@@H]3c3ccc(O)cc3)cc2)C1` gave an IC50 of 5.3 nM.
